Reference: ChEMBL document CHEMBL3585282, “Discovery of Highly Isoform Selective Thiazolopiperidine Inhibitors of Phosphoinositide 3-Kinase γ” (J Med Chem, 2015)
Values after ≈ are worked out from the molar mass of the structure shown.

Key:
[1] = Stability in dog liver microsomes assessed as compound remaining at 5 uM in presence of NADPH after 30 mins by LC-MS/MS method; format: ADME, Canis lupus familiaris; settings: read-out: Stability
[2] = Stability in human liver microsomes assessed as compound remaining at 5 uM in presence of NADPH after 30 mins by LC-MS/MS method; format: ADME; settings: read-out: Stability
[3] = Stability in rat liver microsomes assessed as compound remaining at 5 uM in presence of NADPH after 30 mins by LC-MS/MS method; format: ADME; settings: read-out: Stability
[4] = Thermodynamic solubility in FaSSIF at pH 6.5 at 5 mg incubated for 48 hrs by HPLC method; format: physicochemical; settings: read-out: Therm_solubility
[5] = Thermodynamic solubility in water at 5 mg incubated for 48 hrs by HPLC method; format: physicochemical; settings: read-out: Therm_solubility

remaining at 0.5 h, 5 µM [1] | remaining at 0.5 h, 5 µM [2] | remaining at 0.5 h, 5 µM [3] | solubility thermodynamic at 48 h [4] | solubility thermodynamic at 48 h [5] | SMILES
84% | 61% | 100% | – | – | COc1cc(N2CCc3nc(NC(=O)NCCc4cn(CC(F)F)cn4)sc3C2)cnc1Cl
– | – | – | 9.4 µg/mL (≈ 30.9 µM) | 12.1 µg/mL (≈ 39.8 µM) | COc1cncc(N2CCc3nc(NC(C)=O)sc3C2)c1
